In ChEMBL document CHEMBL1201862, “PubChem BioAssay data set” (2004):
Active and inactive are the calls of the source.

Assays:
[1] = biological target: T1, RNA-binding protein pos-1 (Caenorhabditis elegans, UniProt G5EF15); test: inhibitors of POS-1/mex-3 RNA binding, dose response, biochemical, fluorescence polarization (AID 1964);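 note: purified POS-1 fused to maltose binding protein made in E. coli; potency of compounds blocking POS-1 binding to fluorescent RNA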
T1 sequence (G5EF15 whole entry): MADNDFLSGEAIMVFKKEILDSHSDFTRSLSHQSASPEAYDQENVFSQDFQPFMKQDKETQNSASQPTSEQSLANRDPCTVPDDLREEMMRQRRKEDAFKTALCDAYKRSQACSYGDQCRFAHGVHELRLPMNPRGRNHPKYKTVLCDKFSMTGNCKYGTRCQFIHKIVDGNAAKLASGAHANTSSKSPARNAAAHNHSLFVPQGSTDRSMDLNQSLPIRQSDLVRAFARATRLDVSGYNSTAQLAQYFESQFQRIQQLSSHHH

[2] = HCT116 cell viability decrease, GSK3B pretreatment – CellTiter-Glo, IC50, dose response (AID 1117339); type: functional; conditions: HCT-116
[3] = cytotoxicity toward Colo320 cells – cell-based, CellTiter-Glo luminescence, IC50, dose response (AID 1117334); type: functional; conditions: COLO 320
BJ = test: cells; type: functional, cell-based; conditions: Homo sapiens
[4] = HeLa cell cytotoxicity, dose response, cytotoxicity control for MgcRacGAP inhibitor project (AID 624300); type: functional
Protein RecA = biological target: T2, Protein RecA (Mycobacterium tuberculosis, UniProt P9WHJ3); test: Fluorescence Cell-Free Homogeneous Dose Retest to Identify Inhibitors of RecA-Intein Splicing Activity. [Related pubchem assays (depositor defined):AID2097, AID2223, AID489010, AID492950]; type: functional
T2 sequence (P9WHJ3 whole entry): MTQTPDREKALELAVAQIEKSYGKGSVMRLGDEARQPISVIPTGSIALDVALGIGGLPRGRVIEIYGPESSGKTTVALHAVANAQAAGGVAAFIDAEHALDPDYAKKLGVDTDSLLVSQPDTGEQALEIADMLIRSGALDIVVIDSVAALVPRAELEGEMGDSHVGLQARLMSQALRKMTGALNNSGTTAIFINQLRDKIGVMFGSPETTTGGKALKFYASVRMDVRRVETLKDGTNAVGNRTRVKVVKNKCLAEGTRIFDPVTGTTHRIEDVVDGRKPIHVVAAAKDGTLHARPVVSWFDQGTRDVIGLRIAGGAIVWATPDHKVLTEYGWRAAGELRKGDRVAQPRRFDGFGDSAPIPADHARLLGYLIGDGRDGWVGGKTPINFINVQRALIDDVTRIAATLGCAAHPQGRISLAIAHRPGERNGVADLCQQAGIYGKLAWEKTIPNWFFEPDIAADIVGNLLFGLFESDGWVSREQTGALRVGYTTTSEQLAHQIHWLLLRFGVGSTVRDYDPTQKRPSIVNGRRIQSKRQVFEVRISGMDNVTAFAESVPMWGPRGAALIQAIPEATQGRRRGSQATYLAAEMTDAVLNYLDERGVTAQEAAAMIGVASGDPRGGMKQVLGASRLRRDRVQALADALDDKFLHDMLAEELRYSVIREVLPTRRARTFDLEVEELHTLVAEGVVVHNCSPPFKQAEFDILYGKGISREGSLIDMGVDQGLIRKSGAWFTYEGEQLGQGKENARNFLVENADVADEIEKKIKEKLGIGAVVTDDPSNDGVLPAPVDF

[5] = RKO cell viability reduction, dose response, CellTiter-Glo luminescence (AID 1117322); type: functional
[6] = biological target: T3, Zinc finger protein mex-5 (Caenorhabditis elegans, UniProt Q9XUB2); test: MEX-5/TCR-2 RNA interaction inhibitors, dose response, biochemical, C. elegans, fluorescence polarization (AID 1960)
T3 sequence (Q9XUB2 whole entry): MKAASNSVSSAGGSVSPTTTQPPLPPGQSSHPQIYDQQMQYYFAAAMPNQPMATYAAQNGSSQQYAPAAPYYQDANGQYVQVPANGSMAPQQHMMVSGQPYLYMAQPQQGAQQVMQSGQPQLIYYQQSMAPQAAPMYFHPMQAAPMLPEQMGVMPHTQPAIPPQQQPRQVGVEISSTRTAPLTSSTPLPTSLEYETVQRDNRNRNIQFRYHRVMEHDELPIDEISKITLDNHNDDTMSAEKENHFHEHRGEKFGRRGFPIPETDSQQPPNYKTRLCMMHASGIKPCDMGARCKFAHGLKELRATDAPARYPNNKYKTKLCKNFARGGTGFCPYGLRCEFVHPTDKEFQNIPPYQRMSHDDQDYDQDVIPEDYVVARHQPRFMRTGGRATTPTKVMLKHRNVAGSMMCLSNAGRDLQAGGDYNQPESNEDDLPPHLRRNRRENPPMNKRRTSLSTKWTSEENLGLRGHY

[7] = biological target: Serine/threonine-protein phosphatase PP1-alpha catalytic subunit (Homo sapiens, UniProt P62136); test: PP1 phosphatase inhibitors, dose response, biochemical, fluorescence (AID 2394)
Caspase-6 = biological target: T4, Caspase-6 (Homo sapiens, UniProt P55212); test: human caspase-6 inhibitors, dose response, biochemical, VEID-R110 fluorescence, cherry-pick (AID 720632)
T4 sequence (P55212 whole entry): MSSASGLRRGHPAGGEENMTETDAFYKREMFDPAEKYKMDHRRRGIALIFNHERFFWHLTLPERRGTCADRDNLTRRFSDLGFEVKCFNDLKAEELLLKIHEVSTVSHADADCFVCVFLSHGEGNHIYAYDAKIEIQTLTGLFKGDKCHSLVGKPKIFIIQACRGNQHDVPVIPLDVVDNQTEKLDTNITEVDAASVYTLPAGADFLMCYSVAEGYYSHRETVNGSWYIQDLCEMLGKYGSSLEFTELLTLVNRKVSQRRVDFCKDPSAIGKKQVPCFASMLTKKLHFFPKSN

Chain of Serine/threonine-protein phosphatase PP1-alpha catalytic subunit (P62136 whole entry): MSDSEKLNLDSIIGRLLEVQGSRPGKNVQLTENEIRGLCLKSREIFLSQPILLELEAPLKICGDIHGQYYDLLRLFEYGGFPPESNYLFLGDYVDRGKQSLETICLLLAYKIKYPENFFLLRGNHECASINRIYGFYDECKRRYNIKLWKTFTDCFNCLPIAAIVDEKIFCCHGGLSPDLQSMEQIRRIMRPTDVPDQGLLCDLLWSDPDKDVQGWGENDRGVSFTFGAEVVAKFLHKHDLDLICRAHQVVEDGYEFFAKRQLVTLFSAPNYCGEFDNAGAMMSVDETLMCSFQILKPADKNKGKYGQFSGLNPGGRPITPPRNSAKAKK

**Q.** For Cc1cc2nc3ccc(N(C)C)cc3[s+]c2cc1N [TOLONIUM CHLORIDE], which EC50 [1] is on record?
**A.** > 300 µM (not active)

**Q.** What about the IC50 [2] of the same compound?
**A.** 1.69 µM (active)

**Q.** And the IC50 [3]?
**A.** 0.987 µM (active)

**Q.** And the EC50 (BJ)?
**A.** 7.39 µM (active)

**Q.** What about the CC50 [4] of the same compound?
**A.** 25 µM (active)

**Q.** What about the EC50 (Protein RecA) of the same compound?
**A.** 28 µM (active)

**Q.** And the IC50 [5]?
**A.** 0.996 µM (active)

**Q.** And the EC50 [6]?
**A.** 35.6 µM (active)

**Q.** For CCCOc1cc2c(C#N)c(N3CCCC3)nc(N)c2c(N)n1, which IC50 [7] is on record?
**A.** > 67 µM (not active)

**Q.** And the AC50 (Caspase-6)?
**A.** 16.9 µM (active)
